Measurements as given in US4657924A, “Nafazatrom as a lipoxygenase inhibitor” (priority 1983, dated 1987).

How the values were obtained:
leucocytes = test: Leucocyte stickiness in hamster cheek pouch venules; assay type: in vivo, Syrian golden hamster; settings: intraarterial, 1.0 mg/kg
Protocol: The number of leucocytes counted will be greater, the lower the stickiness of the cells. Male Syrian golden hamsters (80-100 g) were anaesthetized with Nembutal (i.p.; 60 mg/kg). After insertion of a PE 10 catheter into the a.femoralis, the animal was laid on a Duling dissecting platform (MVR 5, 423 (1973)) and the right check pouch was withdrawn by inserting a Q-Tip. It was carefully drawn into the envisaged part of the platform, stretched and fixed. From the start of the dissection, 5 ml/minute of Superfusat flowed over the prepared cheek pouch. The temperature of the solution is 36° C. While treating the vessels with care, the upper layer tissue was separated longitudinally and folded back to the side. Under about 200-fold magnification, an area of about 1 cm^2 of connective tissue was carefully exposed. The animal was placed on the object stand of a microscope, together with the dissecting platform. A thermocouple was inserted into the left cheek pouch. The body temperature of the animal was thus monitored and kept at ±0.3° C. with the aid of an IR lamp (250 watt). The leucocyte stickiness was measured at about 500-fold magnification. A venule (30-40 μm .phi.) was selected in the exposed area. The number of leucocytes per unit time (minutes) which migrate past a certain section of this vessel was counted.

[1] = system: coronary arteries of dogs; settings: cited from earlier work
5-lipoxygenase = 5-lipoxygenase inhibition; assay type: biochemical; settings: selectively, versus 15- and 12-lipoxygenase
[2] = system: prostacyclin (PGI2) from the vascular endothelium; settings: Vermylen et al., Chamone et al., McIntyre and Salzman; cited from earlier work
[3] = system: disorders in cardiac rhythm following coronary ligature; test: Coronary artery ligation in rats: disorders in cardiac rhythm; assay type: in vivo, rat (Wistar); settings: for Duration of VF (seconds), early / Duration of VT (seconds), early / Extrasystoles %, early: 0-10 minutes; for Duration of VF (seconds), late / Duration of VT (seconds), late / Extrasystoles %, late: 2-4 hours
From the text: Ligation of the left coronary artery of the rat heart and the disorders in cardiac rhythm which thereby occur form a relatively simple model for investigating substances having antiarrhythmic actions and effects on the developing myocardial ischaemia (Clark et al., J. Pharmacol. Meth. 3, 357, 1980). The effects of nafazatrom on antiarrhythmic and antiischaemic properties in conscious rats was investigated in this model. Particular importance was placed on the severity and quantity of disorders in cardiac rhythm which occurred.
Male Wistar rats (250-350 g) were superficially anaesthetized with ether and investigated for rhythm disorders. Animals with rhythm abnormalities before the start of the experiment were excluded. In acute surgery, the animals were again anaesthetized with ether. In the lateral dorsal position, the thorax was opened somewhat to the left alongside the central line and the heart was exteriorized. Close below the left heart auricle, a silk ligature (3-0) was looped through the muscle of the left heart under the anterior coronary artery. Animals which developed rhythm disorders during this procedure were excluded. The left coronary artery was ligatured by the method described by Selye et al. (Angiology 11, 398, 1960), the heart was returned to the thorax and the wound was rapidly closed with thread. Since the thorax had not been opened for longer than about 45 seconds, artificial respiration of the animals was unnecessary. The operation mortality was between 25 and 40% within the first hours, and in particular myocardial haemorrhages, rhythm disorders with ventricular fibrillation, and massive cardiac infractions occurred. In a sham-operatedgroup, the same experimental conditions were investigated, with the exception that the coronary artery remained open. Shortly after the ligature had been made, early rhythm disorders were observed, which were accompanied in some cases (untreated) with ventricular fibrillations. In most cases, this ventricular fibrillation spontaneously turned into uniform sinus rhythm of heart contraction. The disorders in cardiac rhythm were evaluated by the plan described by Clark (see above). Ventricular tachycardia was defined as the result of more than 10 successive rhythm disorders with extrasystoles. Electrocardiographic changes included a rise in the ST segment, a drop in the Q waves and a rise in the QT interval. The total number of ectopic activity in each individual animal was determined by counting the ventricular extrasystoles, including tachycardia and fibrillations.
Three groups were investigated: group I received the diluent (1% strength aqueous Tylose suspension, that is to say methylhydroxyethyl-cellulose) twice daily perorally (0.5 ml/kg) for 10 days and by the same administration and in the same amount, after coronary ligature, for a further 20 days; group II was pretreated with the diluent for 10 days (0.5 ml/kg) and was treated with 30 or 100 mg/kg of nafazatrom (in each case suspended in 0.5 ml/kg of 1% strength Tylose suspension) twice daily perorally for 20 days, after coronary ligature (the first nafazatrom administration was effected immediately after the coronary ligature); group III received the above oral doses of nafazatrom in the course of 10 days before the ligature, and the diluent Tylose suspension for 10 days after the coronary occlusion had been effected. The sham-operated animals remained untreated. The peripheral ECG in the extremities was determined in lead II, and in particular, as a control before the start of treatment, shortly before and during coronary ligature, 10 minutes after coronary ligature had been effected, and--after renewed ether anaesthesia-- between the 2nd and 4th hour after coronary occlusion. Each time, the animals were superficially anaesthetized again with ether when the ECG was recorded. At the end of the treatment period, a last ECG was recorded shortly before the animals were sacrificed. […]

15-lipoxygenase = 15-lipoxygenase inhibition; assay type: biochemical; settings: concentrations of >10 μg/ml
[4] = group II, after-treatment 30 mg/kg, 2 × daily, 15 animals
[5] = group II, after-treatment 30 mg/kg, 2 × daily, 9 animals
[6] = group II, after-treatment 100 mg/kg, 2 × daily, 18 animals
[7] = group III, pre-treatment 30 mg/kg, 10 days, 12 animals
[8] = group III, pre-treatment 30 mg/kg, 10 days, 10 animals
[9] = group III, pre-treatment 100 mg/kg, 10 days, 16 animals
[10] = group III, pre-treatment 100 mg/kg, 10 days, 11 animals

CC1=NN(CCOc2ccc3ccccc3c2)C(=O)C1 [nafazatrom, 3-methyl-1-[2-(2-naphthyloxy)-ethyl]-2-pyrazolin-5-one]
duration of action (leucocytes): about 60 minutes | increase in the number of leucocytes (leucocytes): 60-100% | antithrombotic effectiveness [1]: also effective in the coronary arteries of dogs | inhibition of 5-lipoxygenase (5-lipoxygenase): selectively inhibits | stimulation of endogenous prostacyclin (PGI2) [2]: stimulator of endogenous prostacyclin (PGI2) | irregularities in comparison with the control animals ([3]; early (0-10 minutes) and late phase (2-4 hours)): significantly fewer irregularities | Duration of VF (seconds), early [3, 4]: 65 s | Duration of VT (seconds), early [3, 4]: 72 s | Extrasystoles %, early [3, 4]: 94% | Duration of VF (seconds), late [3, 5]: 0 s | Duration of VT (seconds), late [3, 5]: 4 s | Extrasystoles %, late [3, 5]: 6% | Duration of VF (seconds), early [3, 6]: 68 s | Duration of VT (seconds), early [3, 6]: 60 s | Extrasystoles %, early [3, 6]: 90% | Duration of VF (seconds), late [3, 6]: 0 s | Duration of VT (seconds), late [3, 6]: 0 s | Extrasystoles %, late [3, 6]: 0% | Duration of VF (seconds), early [3, 7]: 5 s | Duration of VT (seconds), early [3, 7]: 9 s | Extrasystoles %, early [3, 7]: 34% | Duration of VF (seconds), late [3, 8]: 11 s | Duration of VT (seconds), late [3, 8]: 10 s | Extrasystoles %, late [3, 8]: 25% | Duration of VF (seconds), early [3, 9]: 0 s | Duration of VT (seconds), early [3, 9]: 13 s | Extrasystoles %, early [3, 9]: 25% | Duration of VF (seconds), late [3, 10]: 6 s | Duration of VT (seconds), late [3, 10]: 10 s | Extrasystoles %, late [3, 10]: 4% | prevention of rhythm disorders ([3]; pre-treatment of 100 mg/kg): prevent almost all the rhythm disorders | inhibition of 15-lipoxygenase (15-lipoxygenase): not inhibited or is even stimulated
